{
  "source": "ChEMBL document CHEMBL1125330",
  "about": "“N-substituted pyrazino[2,3-c][1,2,6]thiadiazine 2,2-dioxides. A new class of diuretics” (J Med Chem, 1992)",
  "organism": "Rattus norvegicus",
  "test": "Mean sodium excretion in rats (Control/Drug treatment value); value 0.42/0.65",
  "assay_type": "ADME, organism-based",
  "settings": "in vivo",
  "data": [
    {"smiles": "CCCc1nc2c(nc1C)C(N)=NS(=O)(=O)N2CC", "values": [
      {"measurement": "Na", "value": 1.5}
    ]}
  ]
}
